Measurements: ChEMBL document CHEMBL6078664, “Abietane Diterpenoids from the Rhizomes of Kaempferia roscoeana and Their Anti-Inflammatory Activities” (J Nat Prod, 2024)

What was measured:
RAW264.7 [1] = experiment: Antiinflammatory activity in LPS-induced mouse RAW264.7 cells assessed as inhibition of NO production preincubated for 1 hr followed by LPS stimulation and measured after 24 hrs by microplate reader based analysis; type: functional, cell-based
RAW264.7 [2] = experiment: Cytotoxicity against mouse RAW264.7 cells incubated for 24 hrs by MTT assay; type: functional, cell-based; settings: RAW264.7, 24 h

Compound	IC50 (RAW264.7 [1]) [µM]	IC50 (RAW264.7 [2]) [µM]
CC(C)[C@]1(O)C=C2[C@H](O)C[C@H]3C(C)(C)CCC[C@]3(C)[C@@]2(O)CC1	13.7	> 50
CC(C)C1=C[C@@]23CC[C@H]4C(C)(C)CCC[C@]4([C@H](O)O2)[C@@]3(O)CC1	> 50	> 50
CC(C)C1=C[C@]23OC[C@@]4(CCCC(C)(C)[C@@H]4C[C@H]2O)[C@@]3(O)CC1	20	> 50
CC(C)C1=C[C@@]23CC[C@H]4C(C)(C)CCC[C@]4(CO2)[C@@]3(O)CC1	36.8	44.4

The next molecules have a lower IC50 (RAW264.7 [1]) than those just listed; values first:

IC50 (RAW264.7 [1]) [µM]	Compound	IC50 (RAW264.7 [2]) [µM]
0.3	C[C@@H]1C[C@H]2[C@@H]3CCC4=CC(=O)C=C[C@]4(C)[C@@]3(F)[C@@H](O)C[C@]2(C)[C@@]1(O)C(=O)CO [DEXAMETHASONE]	> 50
4.3	CC(C)C1=CC2=CC[C@H]3C(C)(C)CCC[C@]3(C=O)[C@@]2(O)CC1	> 50
4.1	CO[C@@H]1O[C@]23C=C(C(C)C)CC[C@]2(O)[C@]12CCCC(C)(C)[C@@H]2CC3	> 50
3.6	CC(C)[C@]1(O)C=C2CC[C@H]3C(C)(C)CCC[C@]3(C)[C@@]2(O)CC1	> 50
